{"source": "ChEMBL document CHEMBL5696443", "about": "(Clin Cancer Res, 2016)", "key": {"[1]": {"biological_target": "Leucine-rich repeat serine/threonine-protein kinase 2 (Homo sapiens, UniProt Q5S007)", "test": "Inhibition of human LRRK2 using RLGRDKYKTLRQIRQ as substrate in presence of [gamma33P]-ATP by HotSpot assay"}, "[2]": {"system": "EML4-ALK (Homo sapiens), Q9UM73+Q9HC35 [UNDEFINED MUTATION]", "sequence (Q9HC35 whole entry, looked up, change not shown)": "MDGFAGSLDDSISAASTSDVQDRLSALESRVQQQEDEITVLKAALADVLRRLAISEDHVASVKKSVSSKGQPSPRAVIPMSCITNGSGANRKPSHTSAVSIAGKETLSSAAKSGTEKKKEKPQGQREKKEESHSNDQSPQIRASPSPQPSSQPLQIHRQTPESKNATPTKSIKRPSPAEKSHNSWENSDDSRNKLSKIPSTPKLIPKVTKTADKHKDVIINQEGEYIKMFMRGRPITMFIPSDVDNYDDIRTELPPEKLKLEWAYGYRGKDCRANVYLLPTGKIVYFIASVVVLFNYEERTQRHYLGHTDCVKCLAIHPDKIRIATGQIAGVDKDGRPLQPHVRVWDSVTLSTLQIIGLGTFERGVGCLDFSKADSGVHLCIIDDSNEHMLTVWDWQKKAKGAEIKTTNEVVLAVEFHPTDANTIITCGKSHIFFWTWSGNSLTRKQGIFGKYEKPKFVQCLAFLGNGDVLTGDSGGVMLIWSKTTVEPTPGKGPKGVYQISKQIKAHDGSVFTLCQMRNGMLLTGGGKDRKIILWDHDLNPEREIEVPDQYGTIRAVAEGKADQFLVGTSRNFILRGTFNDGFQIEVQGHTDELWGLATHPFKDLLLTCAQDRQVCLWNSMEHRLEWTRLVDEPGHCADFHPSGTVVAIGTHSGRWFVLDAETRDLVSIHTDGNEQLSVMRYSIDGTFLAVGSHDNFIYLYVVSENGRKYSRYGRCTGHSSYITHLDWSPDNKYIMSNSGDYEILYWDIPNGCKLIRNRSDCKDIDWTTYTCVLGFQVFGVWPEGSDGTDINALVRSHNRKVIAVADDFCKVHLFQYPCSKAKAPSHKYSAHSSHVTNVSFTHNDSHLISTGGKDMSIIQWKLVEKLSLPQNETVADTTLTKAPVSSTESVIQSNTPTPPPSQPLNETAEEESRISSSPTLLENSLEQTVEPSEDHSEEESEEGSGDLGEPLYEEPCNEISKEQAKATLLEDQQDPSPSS", "sequence (Q9UM73 whole entry, looked up, change not shown)": "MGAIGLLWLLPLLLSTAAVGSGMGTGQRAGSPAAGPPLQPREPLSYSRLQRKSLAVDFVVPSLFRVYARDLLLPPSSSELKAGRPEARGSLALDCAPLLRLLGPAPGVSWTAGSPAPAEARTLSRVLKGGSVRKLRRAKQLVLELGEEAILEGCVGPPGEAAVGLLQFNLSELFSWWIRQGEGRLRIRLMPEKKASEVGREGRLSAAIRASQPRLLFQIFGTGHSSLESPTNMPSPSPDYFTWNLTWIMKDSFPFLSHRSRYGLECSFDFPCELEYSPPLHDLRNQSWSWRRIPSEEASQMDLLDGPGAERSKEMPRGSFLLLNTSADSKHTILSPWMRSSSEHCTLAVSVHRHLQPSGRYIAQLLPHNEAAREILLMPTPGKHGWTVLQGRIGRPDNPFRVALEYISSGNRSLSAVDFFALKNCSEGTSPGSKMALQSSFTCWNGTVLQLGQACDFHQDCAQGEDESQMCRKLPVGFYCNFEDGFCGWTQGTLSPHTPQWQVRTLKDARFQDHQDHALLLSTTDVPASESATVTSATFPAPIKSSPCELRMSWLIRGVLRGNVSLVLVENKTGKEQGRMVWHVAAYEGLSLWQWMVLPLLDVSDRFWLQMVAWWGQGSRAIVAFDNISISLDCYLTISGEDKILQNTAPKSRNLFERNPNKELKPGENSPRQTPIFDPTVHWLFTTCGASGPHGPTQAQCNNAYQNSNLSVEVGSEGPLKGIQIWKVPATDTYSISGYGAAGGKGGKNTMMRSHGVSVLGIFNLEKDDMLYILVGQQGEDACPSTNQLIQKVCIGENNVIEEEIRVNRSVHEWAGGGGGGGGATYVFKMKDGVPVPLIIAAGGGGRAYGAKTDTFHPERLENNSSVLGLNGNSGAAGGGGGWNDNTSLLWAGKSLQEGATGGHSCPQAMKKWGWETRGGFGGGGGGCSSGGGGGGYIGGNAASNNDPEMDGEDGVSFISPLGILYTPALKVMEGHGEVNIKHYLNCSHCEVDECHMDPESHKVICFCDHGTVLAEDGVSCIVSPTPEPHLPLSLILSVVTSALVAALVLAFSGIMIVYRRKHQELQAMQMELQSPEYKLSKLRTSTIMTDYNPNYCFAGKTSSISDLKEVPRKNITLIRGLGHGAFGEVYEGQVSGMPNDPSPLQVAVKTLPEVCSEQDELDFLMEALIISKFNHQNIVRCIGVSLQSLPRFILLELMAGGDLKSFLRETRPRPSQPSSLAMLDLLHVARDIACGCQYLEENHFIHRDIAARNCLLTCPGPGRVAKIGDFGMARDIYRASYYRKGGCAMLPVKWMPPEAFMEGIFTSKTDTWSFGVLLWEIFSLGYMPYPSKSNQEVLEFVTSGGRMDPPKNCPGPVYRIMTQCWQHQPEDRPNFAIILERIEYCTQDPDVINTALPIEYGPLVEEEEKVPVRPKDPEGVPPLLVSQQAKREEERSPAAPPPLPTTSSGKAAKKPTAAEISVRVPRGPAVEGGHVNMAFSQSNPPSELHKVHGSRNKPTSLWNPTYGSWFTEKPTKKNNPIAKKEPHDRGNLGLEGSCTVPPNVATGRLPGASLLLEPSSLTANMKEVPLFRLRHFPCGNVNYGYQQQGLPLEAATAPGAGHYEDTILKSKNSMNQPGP", "conditions": "BaF3, time 3-5 weeks"}, "[3]": {"biological_target": "Protein kinase C zeta type (Homo sapiens) (UniProt Q05513)", "test": "Inhibition of human PRKCZ at 1 uM using ERMRPRKRQGSVRRRV as substrate in presence of [gamma33P]-ATP by HotSpot assay relative to control"}, "[4]": {"system": "Platelet-derived growth factor receptor alpha (Homo sapiens), P16234 [V561D]", "sequence (P16234 whole entry V561D)": "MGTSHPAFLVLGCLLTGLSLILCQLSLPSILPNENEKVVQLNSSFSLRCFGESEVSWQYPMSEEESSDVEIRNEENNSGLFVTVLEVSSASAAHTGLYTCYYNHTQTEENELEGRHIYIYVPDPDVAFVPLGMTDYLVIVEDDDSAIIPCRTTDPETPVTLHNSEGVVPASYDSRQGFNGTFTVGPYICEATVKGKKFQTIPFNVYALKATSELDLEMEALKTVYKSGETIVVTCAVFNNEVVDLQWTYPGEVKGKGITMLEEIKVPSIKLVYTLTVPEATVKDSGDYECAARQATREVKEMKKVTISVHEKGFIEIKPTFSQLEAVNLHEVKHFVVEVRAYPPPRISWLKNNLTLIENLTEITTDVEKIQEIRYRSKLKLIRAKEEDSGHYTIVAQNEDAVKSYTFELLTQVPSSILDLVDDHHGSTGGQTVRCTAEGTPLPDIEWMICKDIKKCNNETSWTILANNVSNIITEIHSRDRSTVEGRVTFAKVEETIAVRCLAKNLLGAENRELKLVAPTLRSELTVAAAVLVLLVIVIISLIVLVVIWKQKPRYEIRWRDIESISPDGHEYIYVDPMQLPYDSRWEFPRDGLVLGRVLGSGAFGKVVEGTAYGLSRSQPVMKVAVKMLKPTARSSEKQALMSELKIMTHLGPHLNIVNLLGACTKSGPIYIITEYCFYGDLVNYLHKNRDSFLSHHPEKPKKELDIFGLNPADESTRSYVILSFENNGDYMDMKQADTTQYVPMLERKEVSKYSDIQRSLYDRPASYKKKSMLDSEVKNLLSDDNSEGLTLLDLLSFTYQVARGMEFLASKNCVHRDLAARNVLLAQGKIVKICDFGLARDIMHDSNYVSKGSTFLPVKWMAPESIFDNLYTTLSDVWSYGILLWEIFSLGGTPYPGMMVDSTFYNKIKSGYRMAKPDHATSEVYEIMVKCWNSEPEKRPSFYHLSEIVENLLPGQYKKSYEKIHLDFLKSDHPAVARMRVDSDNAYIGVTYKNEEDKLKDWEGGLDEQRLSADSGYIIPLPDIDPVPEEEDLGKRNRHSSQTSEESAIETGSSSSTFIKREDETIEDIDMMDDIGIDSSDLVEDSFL", "test": "Inhibition of human PDGFRalpha V561D mutant at 1 uM using poly (Glu, Tyr)4:1 as substrate in presence of [gamma33P]-ATP by HotSpot assay relative to control"}, "[5]": {"biological_target": "cAMP-dependent protein kinase catalytic subunit PRKX (Homo sapiens) (UniProt P51817)", "sequence (P51817 whole entry)": "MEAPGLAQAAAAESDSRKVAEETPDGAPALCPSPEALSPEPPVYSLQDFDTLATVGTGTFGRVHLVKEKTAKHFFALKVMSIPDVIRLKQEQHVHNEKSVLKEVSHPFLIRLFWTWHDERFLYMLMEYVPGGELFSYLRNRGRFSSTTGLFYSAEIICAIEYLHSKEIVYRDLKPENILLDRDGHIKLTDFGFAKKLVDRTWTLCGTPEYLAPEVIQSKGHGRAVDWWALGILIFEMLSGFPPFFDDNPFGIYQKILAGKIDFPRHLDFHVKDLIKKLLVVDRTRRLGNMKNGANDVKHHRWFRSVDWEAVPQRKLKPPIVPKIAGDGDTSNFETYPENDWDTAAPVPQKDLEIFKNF", "test": "Inhibition of human PRKX at 1 uM using LRRASLG as substrate in presence of [gamma33P]-ATP by HotSpot assay relative to control"}, "[6]": {"biological_target": "Serine/threonine-protein kinase Chk1 (Homo sapiens, UniProt O14757)", "test": "Inhibition of human CHEK1 using KKKVSRSGLYRSPSMPENLNRPR as substrate in presence of [gamma33P]-ATP by HotSpot assay"}, "in vitro": {"test": "in vitro", "conditions": "mouse, BaF3 cells"}, "[7]": {"biological_target": "Serine/threonine-protein kinase Sgk2 (Homo sapiens) (UniProt Q9HBY8)", "test": "Inhibition of human SGK2 at 1 uM using KGSGSGRPRTSSFAEG as substrate in presence of [gamma33P]-ATP by HotSpot assay relative to control"}, "[8]": {"biological_target": "Serine/threonine-protein kinase Chk2 (Homo sapiens, UniProt O96017, I157T)", "sequence (O96017 whole entry I157T)": "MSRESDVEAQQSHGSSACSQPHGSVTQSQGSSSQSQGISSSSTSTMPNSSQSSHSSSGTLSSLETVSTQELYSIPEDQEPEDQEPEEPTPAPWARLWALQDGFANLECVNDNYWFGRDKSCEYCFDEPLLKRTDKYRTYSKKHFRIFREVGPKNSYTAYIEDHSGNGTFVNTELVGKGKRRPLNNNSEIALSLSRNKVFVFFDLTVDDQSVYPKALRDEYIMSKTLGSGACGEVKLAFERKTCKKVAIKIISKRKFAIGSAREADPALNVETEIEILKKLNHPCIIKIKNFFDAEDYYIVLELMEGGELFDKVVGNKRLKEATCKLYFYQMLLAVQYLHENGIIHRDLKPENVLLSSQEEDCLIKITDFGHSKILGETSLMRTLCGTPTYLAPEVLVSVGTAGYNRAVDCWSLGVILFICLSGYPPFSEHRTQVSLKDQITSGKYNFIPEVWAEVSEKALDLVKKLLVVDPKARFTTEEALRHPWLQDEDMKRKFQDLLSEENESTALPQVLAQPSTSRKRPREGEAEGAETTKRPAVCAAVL", "test": "Inhibition of human CHEK2 I157T mutant using KKKVSRSGLYRSPSMPENLNRPR as substrate in presence of [gamma33P]-ATP by HotSpot assay"}, "[9]": {"biological_target": "Mitogen-activated protein kinase 9 (Homo sapiens) (UniProt P45984)", "test": "Inhibition of human JNK2a2 at 1 uM using ATF2 as substrate in presence of [gamma33P]-ATP by HotSpot assay relative to control"}, "[10]": {"biological_target": "Mitogen-activated protein kinase 14 (Homo sapiens) (UniProt Q16539)", "test": "Inhibition of human P38alpha T106M mutant at 1 uM using poly (Glu, Tyr)4:1 as substrate in presence of [gamma33P]-ATP by HotSpot assay relative to control"}, "[11]": {"biological_target": "Calcium/calmodulin-dependent protein kinase type IV (Homo sapiens) (UniProt Q16566)", "test": "Inhibition of human CAMK4 at 1 uM using KKLNRTLSFAEPG as substrate in presence of [gamma33P]-ATP by HotSpot assay relative to control"}, "[12]": {"system": "EML4-ALK (Homo sapiens), Q9UM73+Q9HC35 [L1198F]", "conditions": "BaF3, time 3-5 weeks"}, "[13]": {"biological_target": "Mitogen-activated protein kinase kinase kinase 7 (Homo sapiens) (UniProt O43318)", "test": "Inhibition of human MAP3K7 at 1 uM using casein as substrate in presence of [gamma33P]-ATP by HotSpot assay relative to control"}, "Aurora kinase C": {"biological_target": "Aurora kinase C (Homo sapiens, UniProt Q9UQB9)", "test": "Inhibition of human AURKC using H-LRRASLG as substrate in presence of [gamma33P]-ATP by HotSpot assay"}, "NCI-H2228": {"system": "NCI-H2228", "test": "Antitumor activity against ALK positive human NCI-H2228 cells xenografted in CB-17/SCID orthotopic brain tumor mouse model assessed as median survival time at 50 mg/kg po administered daily and measured after 64 days (reference value: 28 days)", "assay_type": "functional", "conditions": "time 64 day"}, "[14]": {"biological_target": "LIM domain kinase 1 (Homo sapiens) (UniProt P53667)", "test": "Inhibition of human LIMK1 at 1 uM using cofilin as substrate in presence of [gamma33P]-ATP by HotSpot assay relative to control"}, "[15]": {"biological_target": "Homeodomain-interacting protein kinase 3 (Homo sapiens) (UniProt Q9H422)", "test": "Inhibition of human HIPK3 at 1 uM using MBP as substrate in presence of [gamma33P]-ATP by HotSpot assay relative to control"}, "[16]": {"biological_target": "Dual specificity tyrosine-phosphorylation-regulated kinase 4 (Homo sapiens) (UniProt Q9NR20)", "test": "Inhibition of human DYRK4 at 1 uM using RRRFRPASPLRGPPK as substrate in presence of [gamma33P]-ATP by HotSpot assay relative to control"}, "[17]": {"system": "EML4-ALK (Homo sapiens), Q9UM73+Q9HC35 [UNDEFINED MUTATION]", "conditions": "BaF3, dose 500.0 nmol/L, time 3-5 weeks"}, "[18]": {"biological_target": "Calcium/calmodulin-dependent protein kinase type II subunit beta (Homo sapiens) (UniProt Q13554)", "test": "Inhibition of human CAMK2b at 1 uM using KKALRRQETVDAL as substrate in presence of [gamma33P]-ATP by HotSpot assay relative to control"}, "[19]": {"biological_target": "Serine/threonine-protein kinase pim-1 (Homo sapiens) (UniProt P11309)", "sequence (P11309 whole entry, looked up)": "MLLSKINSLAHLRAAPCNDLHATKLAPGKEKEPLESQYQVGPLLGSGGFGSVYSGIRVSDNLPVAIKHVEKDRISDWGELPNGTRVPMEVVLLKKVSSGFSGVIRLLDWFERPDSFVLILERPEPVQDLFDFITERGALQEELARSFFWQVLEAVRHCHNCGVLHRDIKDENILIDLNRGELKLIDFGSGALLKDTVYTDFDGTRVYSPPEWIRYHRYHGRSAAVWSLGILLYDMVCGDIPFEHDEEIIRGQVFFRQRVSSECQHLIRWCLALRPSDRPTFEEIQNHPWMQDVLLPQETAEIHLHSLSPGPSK", "test": "Inhibition of human PIM1 at 1 uM using RSRHSSYPAGT as substrate in presence of [gamma33P]-ATP by HotSpot assay relative to control"}, "[20]": {"biological_target": "Tyrosine-protein kinase receptor TYRO3 (Homo sapiens) (UniProt Q06418)", "test": "Inhibition of human TYRO3 at 1 uM using poly (Glu, Tyr)4:1 as substrate in presence of [gamma33P]-ATP by HotSpot assay relative to control"}, "[21]": {"system": "Serine/threonine-protein kinase A-Raf (Homo sapiens), P10398 [Y301D,Y302D]", "test": "Inhibition of human ARAF Y301D/Y302D double mutant at 1 uM using MEK1 as substrate in presence of [gamma33P]-ATP by HotSpot assay relative to control"}, "[22]": {"biological_target": "Protein kinase C gamma type (Homo sapiens) (UniProt P05129)", "test": "Inhibition of human PKCG at 1 uM using ERMRPRKRQGSVRRRV as substrate in presence of [gamma33P]-ATP by HotSpot assay relative to control"}, "[23]": {"system": "EML4-ALK (Homo sapiens), Q9UM73+Q9HC35 [F1174C]", "conditions": "BaF3, time 3-5 weeks"}, "[24]": {"biological_target": "Serine/threonine-protein kinase STK11 (Homo sapiens) (UniProt Q15831)", "test": "Inhibition of human STK11 at 1 uM using LSNLYHQGKFLQTFCGSPLYRRR as substrate in presence of [gamma33P]-ATP by HotSpot assay relative to control"}, "[25]": {"biological_target": "Tyrosine-protein kinase Fyn (Homo sapiens, UniProt P06241)", "test": "Inhibition of human FYN using poly (Glu, Tyr)4:1 as substrate in presence of [gamma33P]-ATP by HotSpot assay"}}, "note": "Activity calls are given as the source filed them. The rule behind the calls is not given here."}
{"smiles": "COc1cc(N2CCC(N3CCN(C)CC3)CC2)ccc1Nc1ncc(Cl)c(Nc2ccccc2P(C)(C)=O)n1", "note": "[BRIGATINIB]", "values": [{"measurement": "IC50", "setting": "[1]", "value": 51, "unit": "nM"}, {"measurement": "IC90", "setting": "[2]", "value": 416, "unit": "nM"}, {"measurement": "inhibition", "setting": "[3]", "value": "< 90", "unit": "%"}, {"measurement": "inhibition", "setting": "[4]", "value": "< 90", "unit": "%"}, {"measurement": "inhibition", "setting": "[5]", "value": "< 90", "unit": "%"}, {"measurement": "IC50", "setting": "[6]", "value": 30, "unit": "nM"}, {"measurement": "IC50 at 72 h", "setting": "in vitro", "value": 3210, "unit": "nM"}, {"measurement": "inhibition", "setting": "[7]", "value": "< 90", "unit": "%"}, {"measurement": "IC50", "setting": "[8]", "value": 5.6, "unit": "nM"}, {"measurement": "inhibition", "setting": "[9]", "value": "< 90", "unit": "%"}, {"measurement": "inhibition", "setting": "[10]", "value": "< 90", "unit": "%"}, {"measurement": "inhibition", "setting": "[11]", "value": "< 90", "unit": "%"}, {"measurement": "IC90", "setting": "[12]", "value": 242, "unit": "nM"}, {"measurement": "inhibition", "setting": "[13]", "value": "< 90", "unit": "%"}, {"measurement": "IC50", "setting": "Aurora kinase C", "value": "> 1000", "unit": "nM"}, {"measurement": "MSD", "setting": "NCI-H2228", "value": ">64", "unit": "days"}, {"measurement": "inhibition", "setting": "[14]", "value": "< 90", "unit": "%"}, {"measurement": "inhibition", "setting": "[15]", "value": "< 90", "unit": "%"}, {"measurement": "inhibition", "setting": "[16]", "value": "< 90", "unit": "%"}, {"measurement": "inhibition", "setting": "[17]", "value": "Active"}, {"measurement": "inhibition", "setting": "[18]", "value": "< 90", "unit": "%"}, {"measurement": "inhibition", "setting": "[19]", "value": "< 90", "unit": "%"}, {"measurement": "inhibition", "setting": "[20]", "value": "< 90", "unit": "%"}, {"measurement": "inhibition", "setting": "[21]", "value": "< 90", "unit": "%"}, {"measurement": "inhibition", "setting": "[22]", "value": "< 90", "unit": "%"}, {"measurement": "IC90", "setting": "[23]", "value": 160, "unit": "nM"}, {"measurement": "inhibition", "setting": "[24]", "value": "< 90", "unit": "%"}, {"measurement": "IC50", "setting": "[25]", "value": 198, "unit": "nM"}]}
